# Biological target: T1, F508del (Homo sapiens, UniProt P13569, DEL508-508)
# T1 construct: expressed in transfected cells
# Assay: Protocol 1: membrane potential optical assay (FLIPR III, voltage sensing dye), identification of potentiator compounds
# Type: cell-based
# Settings: Table 3, compounds of Table 1
# Outline: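 Gating potentiation is read as a membrane-potential fluorescence change (FLIPR III, voltage-sensing dye) after one forskolin addition under a Cl− gradient, with gluconate replacing chloride, pH 7.4. Cells are F508del-expressing NIH3T3 mouse fibroblasts held 24 h at 27 °C and exposed to compound before dye loading.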
# T1 sequence (P13569 with tags, fused parts or gaps DEL508-508): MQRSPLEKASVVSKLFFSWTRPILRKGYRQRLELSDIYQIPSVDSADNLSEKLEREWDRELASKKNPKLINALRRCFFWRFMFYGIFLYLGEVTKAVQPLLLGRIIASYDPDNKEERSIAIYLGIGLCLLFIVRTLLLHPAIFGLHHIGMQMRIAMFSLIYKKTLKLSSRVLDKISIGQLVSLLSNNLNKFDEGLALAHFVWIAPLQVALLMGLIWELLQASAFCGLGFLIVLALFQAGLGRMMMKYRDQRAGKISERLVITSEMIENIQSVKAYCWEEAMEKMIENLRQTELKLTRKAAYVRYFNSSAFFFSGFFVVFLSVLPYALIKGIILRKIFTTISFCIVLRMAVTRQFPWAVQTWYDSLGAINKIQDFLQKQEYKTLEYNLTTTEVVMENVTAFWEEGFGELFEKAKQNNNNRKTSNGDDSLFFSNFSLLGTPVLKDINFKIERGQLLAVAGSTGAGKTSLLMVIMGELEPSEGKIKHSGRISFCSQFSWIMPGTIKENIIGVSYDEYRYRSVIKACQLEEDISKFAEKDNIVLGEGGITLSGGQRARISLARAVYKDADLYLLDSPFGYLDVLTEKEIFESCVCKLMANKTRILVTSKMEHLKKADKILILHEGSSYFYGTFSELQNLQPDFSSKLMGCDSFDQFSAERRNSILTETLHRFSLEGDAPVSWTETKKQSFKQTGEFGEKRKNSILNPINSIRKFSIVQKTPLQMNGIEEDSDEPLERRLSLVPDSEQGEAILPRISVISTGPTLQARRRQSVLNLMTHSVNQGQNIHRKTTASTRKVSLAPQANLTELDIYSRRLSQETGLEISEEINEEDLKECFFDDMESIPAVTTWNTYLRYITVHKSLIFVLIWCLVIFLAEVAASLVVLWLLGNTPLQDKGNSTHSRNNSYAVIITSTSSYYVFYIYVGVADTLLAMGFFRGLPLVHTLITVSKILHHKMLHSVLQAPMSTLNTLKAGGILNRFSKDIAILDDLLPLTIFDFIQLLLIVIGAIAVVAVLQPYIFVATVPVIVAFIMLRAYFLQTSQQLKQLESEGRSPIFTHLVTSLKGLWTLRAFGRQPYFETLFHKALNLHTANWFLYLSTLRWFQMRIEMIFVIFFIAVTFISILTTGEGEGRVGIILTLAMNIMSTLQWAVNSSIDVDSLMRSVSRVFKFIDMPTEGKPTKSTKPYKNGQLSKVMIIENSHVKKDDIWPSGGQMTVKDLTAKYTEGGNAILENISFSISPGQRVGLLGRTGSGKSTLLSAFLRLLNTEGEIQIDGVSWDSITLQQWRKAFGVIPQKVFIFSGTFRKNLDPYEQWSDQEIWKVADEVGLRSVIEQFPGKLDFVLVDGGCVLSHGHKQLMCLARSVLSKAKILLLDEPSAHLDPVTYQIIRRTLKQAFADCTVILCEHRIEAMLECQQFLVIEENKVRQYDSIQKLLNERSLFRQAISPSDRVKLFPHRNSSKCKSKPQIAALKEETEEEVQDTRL
row,Compound,EC30
1,"CC(C)COc1cc(F)cc(-c2ccc(C(=O)NS(=O)(=O)c3cccc(N)n3)c(OC(C)c3cccnc3)n2)c1 (centres unmarked) [Compound 1434, N-[(6-amino-2-pyridyl)sulfonyl]-6-(3-fluoro-5-isobutoxy-phenyl)-2-[1-(3-pyridyl)ethoxy]pyridine-3-carboxamide]",+++ (“+++” means <3 uM)
2,"Cc1cc(C)c(Cn2nc(C(C)(C)C)cc2C(=O)NS(=O)(=O)c2ccc(CN)cc2)c(C)c1 [Compound 1670, N-[4-(aminomethyl)phenyl]sulfonyl-5-tert-butyl-2-[(2,4,6-trimethylphenyl)methyl]pyrazole-3-carboxamide]",++ (“++” means between 3 uM and 10 uM)
3,"COc1ccc(-c2ccc(C(=O)NS(=O)(=O)c3cccnc3N)c(N3C[C@@H](C)CC3(C)C)n2)cc1F [Compound 1851, N-[(2-amino-3-pyridyl)sulfonyl]-6-(3-fluoro-4-methoxy-phenyl)-2-[(4S)-2,2,4-trimethylpyrrolidin-1-yl]pyridine-3-carboxamide]",+++ (“+++” means <3 uM)
4,"COc1cccc(-c2ccc(C(=O)NS(=O)(=O)c3cccc(N)n3)c(Oc3c(C)cc(C)cc3C)n2)n1 [Compound 1034, N-[(6-amino-2-pyridyl)sulfonyl]-6-(6-methoxy-2-pyridyl)-2-(2,4,6-trimethylphenoxy)pyridine-3-carboxamide]",+++ (“+++” means <3 uM)
5,"CC(C)COc1cccc(-c2ccc(C(=O)NS(=O)(=O)c3cccc(N)n3)c(N3[C@H](C)CC[C@@H]3C)n2)c1 [Compound 957, N-[(6-amino-2-pyridyl)sulfonyl]-2-[(2S,5R)-2,5-dimethylpyrrolidin-1-yl]-6-(3-isobutoxyphenyl)pyridine-3-carboxamide]",+++ (“+++” means <3 uM)
6,"Cc1cc(C)c(Oc2nc(N(C)C)ccc2C(=O)NS(=O)(=O)c2cccc(N)n2)c(C)c1 [Compound 1306, N-[(6-amino-2-pyridyl)sulfonyl]-6-(dimethylamino)-2-(2,4,6-trimethylphenoxy)pyridine-3-carboxamide]",+++ (“+++” means <3 uM)
7,"CC(C)COc1cc(F)cc(-c2ccc(C(=O)NS(=O)(=O)c3cccc(N)n3)c(N3CCC[C@H]3C(F)(F)F)n2)c1 [Compound 1304, N-[(6-amino-2-pyridyl)sulfonyl]-6-(3-fluoro-5-isobutoxy-phenyl)-2-[(2S)-2-(trifluoromethyl)pyrrolidin-1-yl]pyridine-3-carboxamide]",+++ (“+++” means <3 uM)
8,"CC1CN(c2ncccc2C(=O)NS(=O)(=O)c2cccc(Nc3ccc4ncsc4c3)n2)C(C)(C)C1 (centres unmarked) [Compound 1775, N—[[6-(1,3-benzothiazol-6-ylamino)-2-pyridyl]sulfonyl]-2-(2,24-trimethylpyrrolidin-1-yl)pyridine-3-carboxamide]",+++ (“+++” means <3 uM)
9,"Cc1cccc(C)c1Cn1c(C(=O)NS(=O)(=O)c2ccccc2)cc2cccnc21 [Compound 1291, N-(benzenesulfonyl)-1-[(2,6-dimethylphenyl)methyl]pyrrolo[2,3-b]pyridine-2-carboxamide]",++ (“++” means between 3 uM and 10 uM)
10,"CC(C)Oc1cc(F)cc(-c2ccc(C(=O)NS(=O)(=O)c3cccc(N)n3)c(N3[C@H](C)CC[C@@H]3C)n2)c1 [Compound 1123, N-[(6-amino-2-pyridyl)sulfonyl]-2-[(2S,5R)-2,5-dimethylpyrrolidin-1-yl]-6-(3-fluoro-5-isopropoxy-phenyl)pyridine-3-carboxamide]",+++ (“+++” means <3 uM)
11,"CC(C)COc1cc(F)cc(-c2ccc(C(=O)NS(=O)(=O)c3ccn[nH]3)c(N3CCCC3(C)C)n2)c1 [Compound 1302, 2-(2,2-dimethylpyrrolidin-1-yl)-6-(3-fluoro-5-isobutoxy-phenyl)-N-(1H-pyrazol-5-ylsulfonyl)pyridine-3-carboxamide]",++ (“++” means between 3 uM and 10 uM)
12,"CCCc1ccc2c(c1)cc(C(=O)NS(=O)(=O)c1cccc(N)n1)n2Cc1c(C)cc(C)cc1C [Compound 1158, N-[(6-amino-2-pyridyl)sulfonyl]-5-propyl-1-[(2,4,6-trimethylphenyl)methyl]indole-2-carboxamide]",+++ (“+++” means <3 uM)
13,"Cc1cc(C)c(Oc2nc(-c3cccc(Cl)c3)ccc2C(=O)NS(=O)(=O)c2cccc(N)n2)c(C)c1 [Compound 1295, N-[(6-amino-2-pyridyl)sulfonyl]-6-(3-chlorophenyl)-2-(2,4,6-trimethylphenoxy)pyridine-3-carboxamide]",+++ (“+++” means <3 uM)
14,"CC(C)COc1cc(F)cc(-c2ccc(C(=O)NS(=O)(=O)c3ccn[nH]3)c(N3CCC(c4ccccc4)CC3)n2)c1 [Compound 1315, 6-(3-fluoro-5-isobutoxy-phenyl)-2-(4-phenyl-1-piperidyl)-N-(1H-pyrazol-5-ylsulfonyl)pyridine-3-carboxamide]",+++ (“+++” means <3 uM)
15,"C[C@@H]1CN(c2nc(-c3cnc4[nH]ccc4c3)ccc2C(=O)NS(=O)(=O)c2cccnc2N)C(C)(C)C1 [Compound 1714, N-[(2-amino-3-pyridyl)sulfonyl]-6-(1H-pyrrolo[2,3-b]pyridin-5-yl)-2-[(4S)-2,2,4-trimethylpyrrolidin-1-yl]pyridine-3-carboxamide]",++ (“++” means between 3 uM and 10 uM)
16,"CC1CN(c2ncccc2C(=O)NS(=O)(=O)c2cccc(NCc3ccc4c(c3)OCO4)n2)C(C)(C)C1 (centres unmarked) [Compound 1814, N—[[6-(1,3-benzodioxol-5-ylmethylamino)-2-pyridyl]sulfonyl]-2-(2,2,4-trimethylpyrrolidin-1-yl)pyridine-3-carboxamide]",+++ (“+++” means <3 uM)
17,"CC(C)COc1cc(F)cc(-c2ccc(C(=O)NS(=O)(=O)c3cccc(N)n3)c(N3CCC4(CCC4)CC3)n2)c1 [Compound 1303, N-[(6-amino-2-pyridyl)sulfonyl]-2-(7-azaspiro[3.5]nonan-7-yl)-6-(3-fluoro-5-isobutoxy-phenyl)pyridine-3-carboxamide]",+++ (“+++” means <3 uM)
18,"CCOC(=O)/C=C/c1cc(C(=O)NS(=O)(=O)c2cccc(N)n2)c(N2C[C@@H](C)CC2(C)C)nc1C(C)(C)C [Compound 1490, Ethyl (E)-3-[5-[(6-amino-2-pyridyl)sulfonylcarbamoyl]-2-tert-butyl-6-[(4S)-2,2,4-trimethylpyrrolidin-1-yl]-3-pyridyl]prop-2-enoate]",+++ (“+++” means <3 uM)
19,"CC(C)COc1cc(F)cc(-c2ccc(C(=O)NS(=O)(=O)c3cccc(N)n3)c(N3C[C@H](C)CC3(C)C)n2)c1 [Compound 1289, N-[(6-amino-2-pyridyl)sulfonyl]-6-(3-fluoro-5-isobutoxy-phenyl)-2-[(4R)-2,2,4-trimethylpyrrolidin-1-yl]pyridine-3-carboxamide]",+++ (“+++” means <3 uM)
20,"Cc1cc(F)ccc1-c1ccc(C(=O)NS(=O)(=O)c2cccc(N)n2)c(N2CC(C)CC2(C)C)n1 (centres unmarked) [Compound 822, N-[(6-amino-2-pyridyl)sulfonyl]-6-(4-fluoro-2-methyl-phenyl)-2-(2,2,4-trimethylpyrrolidin-1-yl)pyridine-3-carboxamide]",+++ (“+++” means <3 uM)
21,"Cc1cc(C)c(CN2Cc3ccccc3C2(C)C(=O)NS(=O)(=O)c2cccc(N)c2)c(C)c1 (centres unmarked) [Compound 1273, N-(3-aminophenyl)sulfonyl-1-methyl-2-[(2,4,6-trimethylphenyl)methyl]isoindoline-1-carboxamide]",+++ (“+++” means <3 uM)
22,"COc1ccc(-c2ccc(C(=O)NS(=O)(=O)c3cccnc3N)c(N3C[C@@H](C)CC3(C)C)n2)cc1C [Compound 1747, N-[(2-amino-3-pyridyl)sulfonyl]-6-(4-methoxy-3-methyl-phenyl)-2-[(4S)-2,2,4-trimethylpyrrolidin-1-yl]pyridine-3-carboxamide]",+++ (“+++” means <3 uM)
23,"CCOC1CCN(c2nc(-c3ccc(OC(C)C)nc3)ccc2C(=O)NS(=O)(=O)c2cccc(N)n2)CC1 [Compound 1214, N-[(6-amino-2-pyridyl)sulfonyl]-2-(4-ethoxy-1-piperidyl)-6-(6-isopropoxy-3-pyridyl)pyridine-3-carboxamide]",++ (“++” means between 3 uM and 10 uM)
24,"Cc1cc(C)c(CN2Cc3ccc(O)cc3C2(C)C(=O)NS(=O)(=O)c2cccc(N)n2)c(C)c1 (centres unmarked) [Compound 885, N-[(6-amino-2-pyridyl)sulfonyl]-6-hydroxy-1-methyl-2-[(2,4,6-trimethylphenyl)methyl]isoindoline-1-carboxamide]",++ (“++” means between 3 uM and 10 uM)
25,"COCC1CCN(c2nc(-c3cc(F)cc(OCC(C)C)c3)ccc2C(=O)NS(=O)(=O)c2ccn[nH]2)CC1 [Compound 975, 6-(3-fluoro-5-isobutoxy-phenyl)-2-[4-(methoxymethyl)-1-piperidyl]-N-(1H-pyrazol-5-ylsulfony)pyridine-3-carboxamide]",++ (“++” means between 3 uM and 10 uM)
26,"Cc1cccc(-c2ccc(C(=O)NS(=O)(=O)c3cccnc3N)c(N3C[C@@H](C)CC3(C)C)n2)c1 [Compound 1829, N-[(2-amino-3-pyridyl)sulfonyl]-6-(m-tolyl)-2-[(4S)-2,2,4-trimethylpyrrolidin-1-yl]pyridine-3-carboxamide]",+++ (“+++” means <3 uM)
27,"Cc1ccc(-c2ccc(C(=O)NS(=O)(=O)c3cccnc3N)c(N3C[C@@H](C)CC3(C)C)n2)c(O)c1 [Compound 1731, N-[(2-amino-3-pyridyl)sulfonyl]-6-(2-hydroxy-4-methyl-phenyl)-2-[(4S)-2,2,4-trimethylpyrrolidin-1-yl]pyridine-3-carboxamide]",+++ (“+++” means <3 uM)
28,"CC(C)COc1ccc(F)c(-c2ccc(C(=O)NS(=O)(=O)c3cccc(N)n3)c(N3CC(C)CC3(C)C)n2)c1 (centres unmarked) [Compound 1194, N-[(6-amino-2-pyridyl)sulfonyl]-6-(2-fluoro-5-isobutoxy-phenyl)-2-(2,2,4-trimethylpyrrolidin-1-yl)pyridine-3-carboxamide]",+++ (“+++” means <3 uM)
29,"CCOc1cccc2c1CN(Cc1ccc(F)cc1)C2(C)C(=O)NS(=O)(=O)c1cccc(N)n1 (centres unmarked) [Compound 1433, N-[(6-amino-2-pyridyl)sulfonyl]-4-ethoxy-2-[(4-fluorophenyl)methyl]-1-methyl-isoindoline-1-carboxamide]",++ (“++” means between 3 uM and 10 uM)

# Reference: patent publication US10758534B2 (Vertex Pharmaceuticals Incorporated, priority 2014, dated 2020)
